Converted amounts (≈) assume the structure as drawn. Like-named read-outs stand apart in the source and are kept apart here.
Experiments:
MMP-2 [1] = target: T1, MMP-2 (Homo sapiens, UniProt P08253); parameters: method as in PMID 30629065; conditions: previous work; read-out: MMP-2 IC50; cited from earlier work
T1 construct: the catalytic domains of the corresponding MMP were incubated in triplicate; purchased Enzo Life Science International, Inc

[2] = Thermodynamic solubility (shake flask method); format: physicochemical; conditions: phosphate buffer, aqueous buffer, thermodynamic from solid; PBS pH 7.4, shake flask, room temperature; read-out: Experimental Water Solubility LogS (converted)
Procedure: The samples were sonicated for 10 min and shaken overnight at 800 rpm (FB15013 TopMix, Fischer Scientific, Waltham, MA, USA) at room temperature. A first phase separation of supernatant and undissolved solid was performed by centrifugation at 5000 rpm for 20 min (Biofuge primo R). The supernatant was then transferred into Eppendorf tubes for a second centrifugation. An adequate dilution was made using the particle-free supernatant and the concentration quantified by LC-HRMS using a 4-point calibration curve (Agilent 1260 Infinity II).
PART A. Calibration curves of compounds for solubility
9e, 10a-e), 4-points calibration curves were made for each compound. Calibrations curves were obtained using four different concentrations of the corresponding compound (0.1 mg/mL, 0.01 mg/mL, 0.001 mg/mL and 0.0001 mg/mL). All samples were prepared in DMSO and measured in a LC-HRMS (Agilent 1260 Infinity II).
Figure S1. Calibration curves of all active compounds (solubility studies) (1, 2, 9a, 9e, 10a-e) […]

MMP-2 [3] = target: T1, MMP-2; test: MMP inhibition assay (MMP Inhibitor Profiling Kit, thiopeptide substrate), MMP-2; format: biochemical; conditions: catalytic domain, 37 °C, pH 7.5
Procedure: (§1) MMP activity measurements were performed using an MMP Inhibitor Profiling Kit purchased from Enzo Life Science International, Inc. (Farmingdale, NY, USA), and following the manufacturer’s protocol with slight modifications. Proteolytic activity was measured using a thiopeptide substrate (Ac-PLG-[2-mercapto-4-methylpentanoyl]-LG-OC2H5) where the MMP cleavage site peptide bond has been replaced by a thioester bond. Hydrolysis of this bond by MMPs produces a sulfhydryl group that reacts with DTNB to form 2-nitro-5-thiobenzoic acid, which was detected by its absorbance at 414 nm (microplate photometer 90 Thermo Scientific Multiscan FC).
(§2) Enzyme reactions were carried out at 37 °C in a 100 μL final volume of solutions, where the catalytic domains of the corresponding MMP were incubated in triplicate with at least seven concentrations of inhibitors. The assay buffer contained the following components: 50 mM HEPES, 10 mM CaCl2 95, 0.05% Brij-35, and 1 mM DTNB at pH 7.5. After addition of the substrate, the increase of absorbance was recorded in 1 min time intervals for 30 min. Data were plotted as OD versus time for each sample to obtain the reaction velocity (V) in OD per min. The percentage of residual activity for each compound was calculated using the following formula: % of remaining activity = (V in the presence of inhibitor/Vcontrol) × 100. An inhibitor, NNGH, was included as a prototypic control inhibitor. IC50 calculations in MMP-13 and MMP-2 for active compounds are shown in Supplementary Materials (Figure S9)
The concentration of the compound that provided 50% inhibition of enzymatic activity (IC50) was determined by using semi-logarithmic dose–response plots (Graph Pad Prism 5.0 for Windows, Graph Pad Software Inc., San Diego, CA, USA, 2007).

MMP-13 = target: T2, MMP-13 (Homo sapiens, UniProt P45452); test: MMP inhibition assay (MMP Inhibitor Profiling Kit, thiopeptide substrate), MMP-13; format: biochemical; conditions: catalytic domain, 37 °C, pH 7.5
T2 construct: the catalytic domains of the corresponding MMP were incubated in triplicate; purchased Enzo Life Science International, Inc
Procedure: as §1, with “Proteolytic activity was measured using a thiopeptide substrate (Ac-PLG-[2-mercapto-4-methylpentanoyl]-LG-OC2H5) where the MMP cleavage site peptide bond has been replaced by a thioester bond.” left out
The assay buffer contained the following components: 50 mM HEPES, 10 mM CaCl2 95, 0.05% Brij-35, and 1 mM DTNB at pH 7.5. After addition of the substrate, the increase of absorbance was recorded in 1 min time intervals for 30 min. Data were plotted as OD versus time for each sample to obtain the reaction velocity (V) in OD per min. The percentage of residual activity for each compound was calculated using the following formula: % of remaining activity = (V in the presence of inhibitor/Vcontrol) × 100. An inhibitor, NNGH, was included as a prototypic control inhibitor.

MMP-8 = target: T3, MMP-8 (Homo sapiens, UniProt P22894); test: MMP inhibition assay (MMP Inhibitor Profiling Kit, thiopeptide substrate), MMP-8; format: biochemical; conditions: panel of MMPs
T3 construct: the catalytic domains of the corresponding MMP were incubated in triplicate; purchased Enzo Life Science International, Inc
T3 sequence (P22894 100-262 limits assumed): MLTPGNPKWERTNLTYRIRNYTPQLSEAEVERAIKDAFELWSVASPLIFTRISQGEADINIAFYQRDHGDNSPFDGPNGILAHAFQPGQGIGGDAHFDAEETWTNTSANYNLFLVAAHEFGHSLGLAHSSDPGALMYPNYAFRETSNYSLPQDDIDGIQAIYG
Procedure: as §1
as §2, with “An inhibitor, NNGH, was included as a prototypic control inhibitor. IC50 calculations in MMP-13 and MMP-2 for active compounds are shown in Supplementary Materials (Figure S9)” left out

MMP-9 = target: T4, MMP-9 (Homo sapiens, UniProt P14780); test: MMP inhibition assay (MMP Inhibitor Profiling Kit, thiopeptide substrate), MMP-9; format: biochemical; conditions: panel of MMPs
T4 construct: the catalytic domains of the corresponding MMP were incubated in triplicate; purchased Enzo Life Science International, Inc
T4 sequence (P14780 107-444 limits assumed): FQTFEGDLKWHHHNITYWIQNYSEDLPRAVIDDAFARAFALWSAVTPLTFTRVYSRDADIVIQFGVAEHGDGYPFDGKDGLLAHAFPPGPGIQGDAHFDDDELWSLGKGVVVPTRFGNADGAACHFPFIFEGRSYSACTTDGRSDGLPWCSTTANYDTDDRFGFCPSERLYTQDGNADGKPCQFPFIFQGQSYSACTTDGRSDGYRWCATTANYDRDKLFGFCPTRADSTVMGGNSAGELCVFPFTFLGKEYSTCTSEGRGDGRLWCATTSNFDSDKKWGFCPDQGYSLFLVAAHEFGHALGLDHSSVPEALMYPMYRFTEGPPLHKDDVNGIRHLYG
Procedure: as §1
as §2, with “An inhibitor, NNGH, was included as a prototypic control inhibitor. IC50 calculations in MMP-13 and MMP-2 for active compounds are shown in Supplementary Materials (Figure S9)” left out

MMP-10 = target: T5, MMP-10 (Homo sapiens, UniProt P09238); test: MMP inhibition assay (MMP Inhibitor Profiling Kit, thiopeptide substrate), MMP-10; format: biochemical; conditions: panel of MMPs
T5 construct: the catalytic domains of the corresponding MMP were incubated in triplicate; purchased Enzo Life Science International, Inc
T5 sequence (P09238 99-263 limits assumed): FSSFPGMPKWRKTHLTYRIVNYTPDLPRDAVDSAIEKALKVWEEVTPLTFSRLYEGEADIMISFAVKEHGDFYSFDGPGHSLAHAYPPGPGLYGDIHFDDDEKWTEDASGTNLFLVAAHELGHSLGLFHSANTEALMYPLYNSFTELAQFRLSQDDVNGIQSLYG
Procedure: as §1
as §2, with “An inhibitor, NNGH, was included as a prototypic control inhibitor. IC50 calculations in MMP-13 and MMP-2 for active compounds are shown in Supplementary Materials (Figure S9)” left out

MMP-3 = target: T6, MMP-3 (Homo sapiens, UniProt P08254); test: MMP inhibition assay (MMP Inhibitor Profiling Kit, thiopeptide substrate), MMP-3; format: biochemical; conditions: panel of MMPs
T6 construct: the catalytic domains of the corresponding MMP were incubated in triplicate; purchased Enzo Life Science International, Inc
T6 sequence (P08254 100-272 limits assumed): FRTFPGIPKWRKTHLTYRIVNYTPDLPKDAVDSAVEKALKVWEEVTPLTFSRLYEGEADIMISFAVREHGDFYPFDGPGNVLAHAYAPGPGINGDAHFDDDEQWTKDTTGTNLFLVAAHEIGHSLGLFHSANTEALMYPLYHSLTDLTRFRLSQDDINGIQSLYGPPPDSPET
Procedure: as §1
as §2, with “An inhibitor, NNGH, was included as a prototypic control inhibitor. IC50 calculations in MMP-13 and MMP-2 for active compounds are shown in Supplementary Materials (Figure S9)” left out

MMP-12 = target: T7, MMP-12 (Homo sapiens, UniProt P39900); test: MMP inhibition assay (MMP Inhibitor Profiling Kit, thiopeptide substrate), MMP-12; format: biochemical; conditions: panel of MMPs
T7 construct: the catalytic domains of the corresponding MMP were incubated in triplicate; purchased Enzo Life Science International, Inc
T7 sequence (P39900 106-263 limits assumed): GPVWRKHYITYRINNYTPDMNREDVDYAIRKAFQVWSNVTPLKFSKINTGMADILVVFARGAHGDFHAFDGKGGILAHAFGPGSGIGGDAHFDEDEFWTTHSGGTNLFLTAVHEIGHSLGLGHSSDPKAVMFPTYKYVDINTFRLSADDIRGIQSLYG
Procedure: as §1
as §2, with “An inhibitor, NNGH, was included as a prototypic control inhibitor. IC50 calculations in MMP-13 and MMP-2 for active compounds are shown in Supplementary Materials (Figure S9)” left out

MMP-1 = target: T8, MMP-1 (Homo sapiens, UniProt P03956); test: MMP inhibition assay (MMP Inhibitor Profiling Kit, thiopeptide substrate), MMP-1; format: biochemical; conditions: panel of MMPs
T8 construct: the catalytic domains of the corresponding MMP were incubated in triplicate; purchased Enzo Life Science International, Inc
T8 sequence (P03956 100-269 limits assumed): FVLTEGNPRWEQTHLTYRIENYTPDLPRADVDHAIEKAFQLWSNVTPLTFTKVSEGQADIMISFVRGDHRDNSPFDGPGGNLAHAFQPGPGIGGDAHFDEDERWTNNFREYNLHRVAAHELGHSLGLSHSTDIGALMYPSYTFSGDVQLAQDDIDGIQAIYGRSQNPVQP
Procedure: as §1
as §2, with “An inhibitor, NNGH, was included as a prototypic control inhibitor. IC50 calculations in MMP-13 and MMP-2 for active compounds are shown in Supplementary Materials (Figure S9)” left out

MMP-14 = target: T9, MMP-14 (Homo sapiens, UniProt P50281); test: MMP inhibition assay (MMP Inhibitor Profiling Kit, thiopeptide substrate), MMP-14; format: biochemical; conditions: panel of MMPs
T9 construct: the catalytic domains of the corresponding MMP were incubated in triplicate; purchased Enzo Life Science International, Inc
Procedure: as §1
as §2, with “An inhibitor, NNGH, was included as a prototypic control inhibitor. IC50 calculations in MMP-13 and MMP-2 for active compounds are shown in Supplementary Materials (Figure S9)” left out

MMP-7 = target: T10, MMP-7 (Homo sapiens, UniProt P09237); test: MMP inhibition assay (MMP Inhibitor Profiling Kit, thiopeptide substrate), MMP-7; format: biochemical; conditions: panel of MMPs
T10 construct: the catalytic domains of the corresponding MMP were incubated in triplicate; purchased Enzo Life Science International, Inc
T10 sequence (P09237 95-267): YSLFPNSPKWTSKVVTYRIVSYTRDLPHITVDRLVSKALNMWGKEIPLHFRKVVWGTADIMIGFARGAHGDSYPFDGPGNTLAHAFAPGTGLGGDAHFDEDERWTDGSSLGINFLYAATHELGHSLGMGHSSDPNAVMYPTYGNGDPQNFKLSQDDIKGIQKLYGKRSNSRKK
Procedure: as §1
as §2, with “An inhibitor, NNGH, was included as a prototypic control inhibitor. IC50 calculations in MMP-13 and MMP-2 for active compounds are shown in Supplementary Materials (Figure S9)” left out

T1 sequence (P08253 110-446 limits assumed): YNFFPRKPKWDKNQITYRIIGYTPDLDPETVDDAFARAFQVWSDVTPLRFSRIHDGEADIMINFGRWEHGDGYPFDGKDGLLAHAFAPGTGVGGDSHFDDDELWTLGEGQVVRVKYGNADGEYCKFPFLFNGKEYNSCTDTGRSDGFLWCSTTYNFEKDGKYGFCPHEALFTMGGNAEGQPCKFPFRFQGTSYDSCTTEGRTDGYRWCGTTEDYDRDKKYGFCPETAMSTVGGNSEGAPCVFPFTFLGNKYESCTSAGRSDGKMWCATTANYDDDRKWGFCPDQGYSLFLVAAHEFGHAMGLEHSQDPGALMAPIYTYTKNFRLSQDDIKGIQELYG

Row | solubility [2] | IC50 (MMP-2 [3]) | melting point | IC50 (MMP-13) | SMILES | other results
1 | 2.4 µM (≈ 1.95 µg/mL) |  |  |  | O=C(NO)C1(S(=O)(=O)c2ccc(-n3cc(CCn4nc5c(Br)c(Br)c(Br)c(Br)c5n4)nn3)cc2)CCOCC1 [Compound 2] | IC50 (MMP-2 [1]): 100 nM
2 | 2.29 µM (≈ 1.46 µg/mL) | 14 ± 7 nM | 104 °C (dec.) |  | O=C(NO)[C@@H](Cc1ccccc1)NS(=O)(=O)c1ccc(-n2cc(CCN3C(=O)c4ccc(Br)cc4C3=O)nn2)cc1 [Compound 10d, (R)-2-((4-(4-(2-(5-bromo-1,3-dioxoisoindolin-2-yl)ethyl)-1H-1,2,3-triazol-1-yl)phenyl)sulfonamido)-N-hydroxy-3-phenylpropanamide] | 
3 | 3.63 µM (≈ 2.61 µg/mL) | 15 ± 5 nM | 187 to 189 °C | 46 ± 21 nM | O=C(NO)[C@@H](Cc1ccccc1)NS(=O)(=O)c1ccc(-n2cc(CCN3C(=O)c4cc(Br)c(Br)cc4C3=O)nn2)cc1 [Compound 10b, (R)-2-((4-(4-(2-(5,6-dibromo-1,3-dioxoisoindolin-2-yl)ethyl)-1H-1,2,3-triazol-1-yl)phenyl)sulfonamido)-N-hydroxy-3-phenylpropanamide] | 
4 | 9.77 µM (≈ 5.2 µg/mL) | 3.42 ± 1.15 nM |  |  | O=C(NO)[C@@H](Cc1ccccc1)NS(=O)(=O)c1ccc(-n2cc(CCn3nc4ccccc4n3)nn2)cc1 [Compound 9a] | IC50 (MMP-8): 100 ± 19 nM; IC50 (MMP-9): 500 ± 74 nM; IC50 (MMP-10): 280 ± 22 nM; IC50 (MMP-3): 31 ± 8 nM; IC50 (MMP-12): 3.7 ± 2 nM; IC50 (MMP-1): > 1000 nM; IC50 (MMP-14): > 1000 nM; IC50 (MMP-7): 47 ± 21 nM
5 |  | > 100 nM | 227 to 228 °C | > 100 nM | O=C(O)[C@H](Cc1ccccc1)NS(=O)(=O)c1ccc(-n2cc(CCn3nc4ccccc4n3)nn2)cc1 [Compound 9c, (S)-2-(4-(4-(2-(2H-benzo[d][1–3]triazol-2-yl)ethyl)-1H-1,2,3-triazol-1-yl)phenylsulfonamido)-3-phenylpropanoic acid] | 
6 |  | > 100 nM | 127 to 130 °C | > 100 nM | O=C(O)[C@@H](Cc1ccccc1)NS(=O)(=O)c1ccc(-n2cc(CCn3nc4c(Br)c(Br)c(Br)c(Br)c4n3)nn2)cc1 [Compound 9d, (R)-2-(4-(4-(2-(perbromo-2H-benzo[d][1–3]triazol-2-yl)ethyl)-1H-1,2,3-triazol-1-yl)phenylsulfonamido)-3-phenylpropanoic acid] | 

Reference: publication PMC8467962, “Design and Synthesis of Water-Soluble and Potent MMP-13 Inhibitors with Activity in Human Osteosarcoma Cells” (International Journal of Molecular Sciences, 2021)
